Tested on: 485176-168-R4-J1-PDC complex spheroid growth
Experiment: Anticancer human tumor 485176-168-R4-J1-PDC patient-derived pancreatic adenocarcinoma cell line growth inhibition [RAS]
Conditions: for IC50: curve of first compound; for viability, T/C: stronger effect = lower value; active = viability on the fitted dose curve at most 10% of control; inactive = the rest
Source text: RAS pathway inhibitors in Combinations in Complex Spheroids
A high-throughput screen of multi-cell type tumor spheroids was designed to identify active combinations of RAS pathway inhibitors and targeted small molecules. Complex spheroids include a stromal component modeled by human endothelial cells (HUVEC) and fibroblasts modeled by human mesenchymal stem cells (MSCs). The concentration ranges selected for each drug and investigational agent were based upon clinically achievable concentrations if the clinical Cmax of the agent was known.
Compounds. The drugs and investigational agents: abemaciclib (NSC768073), cobimetinib (NSC768068), divarasib (GDC6063, NSC841802), docetaxel (NSC628503), GDC-1971 (RLY-1971, NSC841576), gemcitabine (NSC613327), inavolisib (NSC800729), ipatasertib (NSC767898), KB-0742 (NSC834161), MRTX-1133 (NSC836407), osimertinib (NSC779217), RMC-4630 (NSC839698), RMC-6236 (NSC851965), RMC-6291 (NSC852671), Ro-3306 (NSC812927), sapanisertib (NSC764658), SN-38 (NSC673596), staurosporine (NSC755774), SY5609 (NSC837396), and tovorafenib (DAY101, NSC766906), were obtained from the National Cancer Institute (NCI) Developmental Therapeutics Program Chemical Repository. The FDA-approved anticancer drug set is available from the NCI Developmental Therapeutics Program. […] The stock solutions were prepared in dimethyl sulfoxide (DMSO, Sigma-Aldrich, St. Louis, MO, cat. D2650) at 800-fold the tested concentration and stored at -70 degrees C prior to their use. All drugs and investigational agents were tested over a range starting from a high concentration at or near the clinical Cmax and decreasing in half-log increments. If the clinical Cmax for an agent had not been determined, the highest concentration tested was 10 microM.
Cell Culture. All cells were maintained in an incubator at 37 degrees C and 5% CO2 with 95% humidity. The PDC lines were cultured according to standard operating procedures established by the NCI PDMR. All PDCs were thawed and cultured in Matrigel-coated flasks prepared with a working solution of 1X Ham's F-12 nutrient mix, without supplementation (Invitrogen, Waltham, MA, cat. 11765054), 100 U/mL penicillin-streptomycin (Invitrogen, cat. 15140122), and 2.5% Matrigel (Corning Inc., Corning, NY, cat. 354248) for the first three passages. The 362531-283-R-J2-PDC and 782815-120-R-J1-PDC lines were cultured in 6C/Colon 1B media, which includes advanced DMEM/F-12 (Thermo Fisher Scientific, cat. 12634028), 10 mM HEPES (Thermo Fisher Scientific, cat. 15630080), 1X GlutaMAX supplement (Thermo Fisher Scientific, cat. 35050061), 0.1 mg/mL primocin (InvivoGen, San Diego, CA, cat. ant-pm-2), 10% defined fetal bovine serum, heat inactivated (HyClone Laboratories Inc., Logan, UT, cat. SH30070.03HI), 50% L-WRN conditioned media (ATCC, cat. CRL-3276), 1.25 mM N-Acetyl-L-cysteine (Sigma-Aldrich, cat. A9165), 10 mM nicotinamide (Sigma-Aldrich, cat. N0636), 1X B-27 supplement (Thermo Fisher Scientific, cat. 17504044), 1X N-2 supplement (Thermo Fisher Scientific, cat. 17502048), 50 ng/mL human EGF (Thermo Fisher Scientific, cat. PHG0311), and 10 microM Y-27632 dihydrochloride (Tocris Bioscience, cat. 1254). The K12877-001-R-J1-PDC line was cultured in 6I media, which includes all 6C/Colon 1B media plus 10 ng/mL human FGF-10 (PeproTech, cat. 100-26), 1 ng/mL human FGF-2 (PeproTech, cat. 100-18B), 1 µM prostaglandin E2 (Tocris Bioscience, cat. 2296), […] hydrocortisone (Sigma-Aldrich, cat. H4001), and […] bovine insulin (Sigma-Aldrich, cat. I6634). The K86415-001-R-J1-PDC line was cultured in 6D media, which includes all 6C/Colon 1B media components minus the L-WRN conditioned media. The 485176-168-R4-J1-PDC was cultured in PANC media, which includes all 6C/Colon 1B media plus 100 ng/mL human FGF-10 (PeproTech, cat. 100-26), 500 nM SB-431542 (Selleckchem, cat. S1067), and 10 nM gastrin (Tocris Bioscience, cat. 3006). […]
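Note: spheroids exposed to compounds for seven days before readout.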
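Throughout, for viability, T/C: luminescence viability expressed relative to DMSO vehicle wells set as 100%.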

CCc1c2c(nc3ccc(O)cc13)-c1cc3c(c(=O)n1C2)COC(=O)[C@]3(O)CC + C=CC(=O)N1CCN(c2nc(OCC3CCCN3C)nc3c(F)c(-c4nc(N)cc(C)c4C(F)(F)F)c(Cl)cc23)C(C)C1
inactive: viability, T/C (second compound 0.00316 µM, first compound 0.000949 µM) 94.2% | viability, T/C (second compound 0.00316 µM, first compound 0.003 µM) 79.2% | viability, T/C (second compound 0.00316 µM, first compound 0.00949 µM) 58.4% | viability, T/C (second compound 0.00316 µM, first compound 0.03 µM) 31.9% | viability, T/C (second compound 0.00316 µM, first compound 0.0949 µM) 13.9% | viability, T/C (second compound 0.01 µM, first compound 0.000949 µM) 94% | viability, T/C (second compound 0.01 µM, first compound 0.003 µM) 82.6% | viability, T/C (second compound 0.01 µM, first compound 0.00949 µM) 60.6% | viability, T/C (second compound 0.01 µM, first compound 0.03 µM) 28.8% | viability, T/C (second compound 0.01 µM, first compound 0.0949 µM) 12.5% | viability, T/C (second compound 0.0316 µM, first compound 0.000949 µM) 84.8% | viability, T/C (second compound 0.0316 µM, first compound 0.003 µM) 97.8% | viability, T/C (second compound 0.0316 µM, first compound 0.00949 µM) 47.5% | viability, T/C (second compound 0.0316 µM, first compound 0.03 µM) 27.8% | viability, T/C (second compound 0.0316 µM, first compound 0.0949 µM) 10.9% | viability, T/C (second compound 0.1 µM, first compound 0.000949 µM) 81.3% | viability, T/C (second compound 0.1 µM, first compound 0.003 µM) 70.1% | viability, T/C (second compound 0.1 µM, first compound 0.00949 µM) 54.1% | viability, T/C (second compound 0.1 µM, first compound 0.03 µM) 34.5% | viability, T/C (second compound 0.1 µM, first compound 0.0949 µM) 11.2% | viability, T/C (second compound 0.316 µM, first compound 0.000949 µM) 92.8% | viability, T/C (second compound 0.316 µM, first compound 0.003 µM) 82.4% | viability, T/C (second compound 0.316 µM, first compound 0.00949 µM) 71.8% | viability, T/C (second compound 0.316 µM, first compound 0.03 µM) 27% | viability, T/C (second compound 0.316 µM, first compound 0.0949 µM) 14% | viability, T/C (second compound 1 µM, first compound 0.000949 µM) 95.9% | viability, T/C (second compound 1 µM, first compound 0.003 µM) 75% | viability, T/C (second compound 1 µM, first compound 0.00949 µM) 58.7% | viability, T/C (second compound 1 µM, first compound 0.03 µM) 22.7% | viability, T/C (second compound 1 µM, first compound 0.0949 µM) 10.5%
16.6 nM: IC50 (second compound 0.316 µM)
11.9 nM: IC50 (second compound 0.1 µM)
13.3 nM: IC50 (second compound 0.00316 µM)
active: viability, T/C (second compound 0.00316 µM, first compound 0.3 µM) 6.54% | viability, T/C (second compound 0.01 µM, first compound 0.3 µM) 6.49% | viability, T/C (second compound 0.0316 µM, first compound 0.3 µM) 4.77% | viability, T/C (second compound 0.1 µM, first compound 0.3 µM) 6.91% | viability, T/C (second compound 0.316 µM, first compound 0.3 µM) 5.42% | viability, T/C (second compound 1 µM, first compound 0.3 µM) 6.39%
11.1 nM: IC50 (second compound 0.0316 µM) | IC50 (second compound 1 µM)
13.7 nM: IC50 (second compound 0.01 µM)

CC(Nc1ccc2c(c1)OCCn1cc(N3C(=O)OCC3C(F)F)nc1-2)C(N)=O (centres undefined) + CCn1c(-c2cccnc2C(C)OC)c2c3cc(ccc31)N1CCOC(CC(NC(=O)C(C(C)C)N(C)C(=O)C3(F)CCN(C(=O)C#CC(C)(C)N(C)C)CC3)C(=O)N3CCCC(N3)C(=O)OCC(C)(C)C2)C1
8610 nM: IC50 (second compound 0.000949 µM)
> 10000 nM: IC50 (second compound 0.03 µM) | IC50 (second compound 0.0949 µM)
5260 nM: IC50 (second compound 0.3 µM)
8690 nM: IC50 (second compound 0.003 µM)
inactive: viability, T/C (second compound 0.000949 µM, first compound 0.0316 µM) 92.9% | viability, T/C (second compound 0.000949 µM, first compound 0.1 µM) 73.4% | viability, T/C (second compound 0.000949 µM, first compound 0.316 µM) 93.6% | viability, T/C (second compound 0.000949 µM, first compound 1 µM) 77.1% | viability, T/C (second compound 0.000949 µM, first compound 3.16 µM) 84.2% | viability, T/C (second compound 0.000949 µM, first compound 10 µM) 45% | viability, T/C (second compound 0.003 µM, first compound 0.0316 µM) 97.2% | viability, T/C (second compound 0.003 µM, first compound 0.1 µM) 86.6% | viability, T/C (second compound 0.003 µM, first compound 0.316 µM) 85.7% | viability, T/C (second compound 0.003 µM, first compound 1 µM) 74.5% | viability, T/C (second compound 0.003 µM, first compound 3.16 µM) 85.4% | viability, T/C (second compound 0.003 µM, first compound 10 µM) 45.2% | viability, T/C (second compound 0.00949 µM, first compound 0.0316 µM) 94.4% | viability, T/C (second compound 0.00949 µM, first compound 0.1 µM) 79.2% | viability, T/C (second compound 0.00949 µM, first compound 0.316 µM) 77.6% | viability, T/C (second compound 0.00949 µM, first compound 1 µM) 70.9% | viability, T/C (second compound 0.00949 µM, first compound 3.16 µM) 98.3% | viability, T/C (second compound 0.00949 µM, first compound 10 µM) 47.1% | viability, T/C (second compound 0.03 µM, first compound 0.0316 µM) 76.8% | viability, T/C (second compound 0.03 µM, first compound 0.1 µM) 94.1% | viability, T/C (second compound 0.03 µM, first compound 0.316 µM) 88.9% | viability, T/C (second compound 0.03 µM, first compound 1 µM) 73.4% | viability, T/C (second compound 0.03 µM, first compound 3.16 µM) 76.1% | viability, T/C (second compound 0.03 µM, first compound 10 µM) 56.5% | viability, T/C (second compound 0.0949 µM, first compound 0.0316 µM) 90.4% | viability, T/C (second compound 0.0949 µM, first compound 0.1 µM) 67.9% | viability, T/C (second compound 0.0949 µM, first compound 0.316 µM) 75.8% | viability, T/C (second compound 0.0949 µM, first compound 1 µM) 51.9% | viability, T/C (second compound 0.0949 µM, first compound 3.16 µM) 89.6% | viability, T/C (second compound 0.0949 µM, first compound 10 µM) 57% | viability, T/C (second compound 0.3 µM, first compound 0.0316 µM) 61.5% | viability, T/C (second compound 0.3 µM, first compound 0.1 µM) 73.4% | viability, T/C (second compound 0.3 µM, first compound 0.316 µM) 60.4% | viability, T/C (second compound 0.3 µM, first compound 1 µM) 61.5% | viability, T/C (second compound 0.3 µM, first compound 3.16 µM) 59.2% | viability, T/C (second compound 0.3 µM, first compound 10 µM) 39.9%
9140 nM: IC50 (second compound 0.00949 µM)

Source: PubChem BioAssay AID2060906 (Molecular Pharmacology Branch, DTP, NCI, 2025)
